Assay results from paper PMC7642786, “Experimental phasing with vanadium and application to nucleotide-binding membrane proteins” (IUCrJ, 2020).

Biological target: T1, McjD (antibacterial peptide ATP-binding cassette transporter) (Escherichia coli, UniProt Q9X2W0)
T1 construct: full-length, detergent (dodecyl maltopyranoside) purified, ~66 kDa, 580 residues per vanadium, homodimer; prepared as described previously
Experiment: X-ray crystallography (V-SAD, […] Å, phased anomalous difference maps)
Settings: complex formed with 2 mM ATP, 2 mM sodium orthovanadate, 5 mM MgCl2, pH 7.8; post-hydrolysis ADP-VO4 state; one site per monomer

T1 sequence (Q9X2W0 whole entry): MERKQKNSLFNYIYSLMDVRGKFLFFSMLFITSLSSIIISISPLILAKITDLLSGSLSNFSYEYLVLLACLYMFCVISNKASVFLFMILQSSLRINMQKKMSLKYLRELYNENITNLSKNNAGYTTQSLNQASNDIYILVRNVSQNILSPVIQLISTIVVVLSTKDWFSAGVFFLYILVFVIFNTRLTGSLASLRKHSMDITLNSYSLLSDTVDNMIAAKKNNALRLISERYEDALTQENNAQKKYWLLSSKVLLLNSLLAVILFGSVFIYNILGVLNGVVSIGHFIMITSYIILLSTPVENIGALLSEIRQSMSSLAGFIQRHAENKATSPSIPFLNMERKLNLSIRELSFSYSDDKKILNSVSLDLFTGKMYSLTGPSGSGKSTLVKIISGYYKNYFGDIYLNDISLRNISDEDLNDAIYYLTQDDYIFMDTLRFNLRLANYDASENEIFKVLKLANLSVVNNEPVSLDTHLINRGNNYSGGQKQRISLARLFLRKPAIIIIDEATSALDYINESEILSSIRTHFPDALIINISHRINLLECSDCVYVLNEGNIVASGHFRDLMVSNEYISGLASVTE

[O]=[V]([OH])([OH])[OH] [VO4]
X-ray crystallography (V-SAD, 3.4 Å, phased anomalous difference maps): two vanadium sites (one per monomer) could easily be located
